In this assay the target is menin protein (Homo sapiens (Human), UniProt O00255). Description: Fluorescence polarization (FP) competitive binding assay, menin binding affinity. As to conditions: menin protein 4 nM, probe 2 nM, room temperature 30 minutes. How it is done: A fluorescence polarization (FP) competitive binding assay was used to determine the binding affinities of representative menin inhibitors. A FAM labeled fluorescent probe was designed and synthesized based on a MLL1 peptide (FAM-MM2). Equilibrium dissociation constant (Kd) value of FAM-MM2 to menin protein was determined from protein saturation experiments by monitoring the total fluorescence polarization of mixtures composed with the fluorescent probe at a fixed concentration and the protein with increasing concentrations up to full saturation. Serial dilutions of the protein were mixed with FAM-MM2 to a final volume of 200 μl in the assay buffer (PBS with 0.02% Bovine γ-Globulin and 4% DMSO. 0.01% Triton X-100 was added right before assays). Final FAM-MM2 concentration was 2 nM. Plates were incubated at room temperature for 30 minutes with gentle shaking to assure equilibrium. FP values in millipolarization units (mP) were measured using the Infinite M-1000 plate reader (Tecan U.S., Research Triangle Park, N.C.) in Microfluor 1 96-well, black, v-bottom plates (Thermo Scientific, Waltham, Mass.) at an excitation wavelength of 485 nm and an emission wavelength of 530 nm.
The IC50, see Table 3, of representative Compounds of the Disclosure were determined in a competitive binding experiment. Mixtures of 5 μl of the tested compounds in DMSO and 195 μl of preincubated protein/probe complex solution in the assay buffer were added into assay plates which were incubated at room temperature for 30 minutes with gentle shaking. Final concentration of the menin protein was 4 nM, and final probe concentration is 2 nM. Negative controls containing protein/probe complex only (equivalent to 0% inhibition), and positive controls containing only free probes (equivalent to 100% inhibition), were included in each assay plate. FP values were measured as described above. IC50 values were determined by nonlinear regression fitting of the competition curves.

A value given as a limit tells only on which side of the number the result lay.

The term IC50 denotes the concentration that gives 50% inhibition.

Chain of menin protein (O00255 whole entry): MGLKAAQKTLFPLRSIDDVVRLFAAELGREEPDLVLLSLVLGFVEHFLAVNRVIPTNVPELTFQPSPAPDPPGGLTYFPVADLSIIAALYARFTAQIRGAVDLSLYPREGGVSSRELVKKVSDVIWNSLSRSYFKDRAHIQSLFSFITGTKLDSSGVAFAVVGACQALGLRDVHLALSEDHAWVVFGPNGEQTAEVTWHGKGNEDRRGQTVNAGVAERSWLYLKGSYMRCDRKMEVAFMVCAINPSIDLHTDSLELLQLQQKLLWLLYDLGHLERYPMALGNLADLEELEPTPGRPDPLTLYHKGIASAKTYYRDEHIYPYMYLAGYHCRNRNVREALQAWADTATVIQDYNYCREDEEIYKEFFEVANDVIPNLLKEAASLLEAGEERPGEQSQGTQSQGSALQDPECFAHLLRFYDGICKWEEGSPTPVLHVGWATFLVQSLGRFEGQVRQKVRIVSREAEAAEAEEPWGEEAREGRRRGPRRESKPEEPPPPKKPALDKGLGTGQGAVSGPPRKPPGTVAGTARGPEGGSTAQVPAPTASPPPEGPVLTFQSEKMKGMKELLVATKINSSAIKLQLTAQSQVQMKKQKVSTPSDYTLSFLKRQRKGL

In the case of `C=CC(=O)N1CC(S(=O)(=O)c2ccc(N3CC(F)(CN4CCC([C@@](C#N)(c5cccc(F)c5)[C@H]5CCC[C@@H]5NC(=O)OC)CC4)C3)cc2)C1` [Cpd. No. 13, methyl ((1S,2R)-2-((S)-(1-((1-(4-((1-acryloylazetidin-3-yl)sulfonyl)phenyl)-3-fluoroazetidin-3-yl)methyl)piperidin-4-yl)(cyano)(3-fluorophenyl)methyl)cyclopentyl)carbamate], the half-inhibitory concentration (IC50) came to 24 nM.

As for `C=CC(=O)N1CC(S(=O)(=O)c2ccc(OCCOc3ccc([C@](C#N)(c4cccc(F)c4)[C@H]4CCC[C@@H]4NC(=O)OC)cc3)cc2)C1` [Cpd. No. 65, methyl ((1S,2R)-2-((S)-(4-(2-(4-((1-acryloylazetidin-3-yl)sulfonyl)phenoxy)ethoxy)phenyl)(cyano)(3-fluorophenyl)methyl)cyclopentyl)carbamate], the half-maximal inhibitory concentration (IC50) was more than 10000 nM.

Turning to `C/C=C/C(=O)Nc1cccc(S(=O)(=O)c2ccc(N3CC(CN4CCC([C@@](C#N)(c5cccc(F)c5)[C@H]5CCC[C@@H]5NC(=O)OC)CC4)C3)cc2)c1` [Cpd. No. 62, methyl ((1S,2R)-2-((S)-(1-((1-(4-((3-((E)-but-2-enamido)phenyl)sulfonyl)phenyl)azetidin-3-yl)methyl)piperidin-4-yl)(cyano)(3-fluorophenyl)methyl)cyclopentyl)carbamate], the IC50 was determined as 4 nM.

Consider `C=CC(=O)N[C@H]1CCC[C@@H]1[C@](C#N)(c1cccc(F)c1)C1CCN(CC2CN(c3ccc(C#N)cc3)C2)CC1` [Cpd. No. 80, N-((1S,2R)-2-((S)-cyano(1-((1-(4-cyanophenyl)azetidin-3-yl)methyl)piperidin-4-yl)(3-fluorophenyl)methyl)cyclopentyl)acrylamide], for which the IC50 came out at 7 nM.

Take `C=CC(=O)Nc1ccc(S(=O)(=O)c2ccc(N3CC(CN4CCC([C@@](C#N)(c5cccc(F)c5)[C@H]5CCC[C@@H]5OC(=O)NC)CC4)C3)cc2)cc1` [Cpd. No. 10, (1S,2R)-2-((S)-(1-((1-(4-((4-acrylamidophenyl)sulfonyl)phenyl)azetidin-3-yl)methyl)piperidin-4-yl)(cyano)(3-fluorophenyl)methyl)cyclopentyl methylcarbamate]: the IC50 worked out at 2 nM.

With `C=CC(=O)Nc1cccc(S(=O)(=O)c2ccc(N3CC(CN4CCC([C@](C#N)(c5cccc(F)c5)[C@H]5CCC[C@@H]5NC(=O)OC)CC4)C3)cc2)c1` [Cpd. No. 70, methyl ((1S,2R)-2-((R)-(1-((1-(4-((3-acrylamidophenyl)sulfonyl)phenyl)azetidin-3-yl)methyl)piperidin-4-yl)(cyano)(3-fluorophenyl)methyl)cyclopentyl)carbamate], the half-maximal inhibitory concentration (IC50) was more than 10000 nM.

Regarding `COC(=O)N[C@H]1CCC[C@@H]1[C@](C#N)(c1cccc(F)c1)C1CCN(CC2CN(c3ccc(S(=O)(=O)c4cccc(NC(=O)/C=C/CN(C)C)c4)cc3)C2)CC1` [Cpd. No. 63, methyl ((1S,2R)-2-((S)-cyano(1-((1-(4-((3-((E)-4-(dimethylamino)but-2-enamido)phenyl)sulfonyl)phenyl)azetidin-3-yl)methyl)piperidin-4-yl)(3-fluorophenyl)methyl)cyclopentyl)carbamate], the half-inhibitory concentration (IC50) stood at 2 nM.

For `COC(=O)N[C@H]1CCC[C@@H]1[C@](C#N)(c1cccc(F)c1)C1C[C@@H](C)N(CC2CN(c3ccc(S(=O)(=O)C4CN(C(=O)/C=C/CN(C)C)C4)cc3)C2)[C@@H](C)C1` (stereo partly drawn) [Cpd. No. 75, methyl ((1S,2R)-2-((1S)-cyano((2R,6S)-1-((1-(4-((1-((E)-4-(dimethylamino)but-2-enoyl)azetidin-3-yl)sulfonyl)phenyl)azetidin-3-yl)methyl)-2,6-dimethylpiperidin-4-yl)(3-fluorophenyl)methyl)cyclopentyl)carbamate], the IC50 was found to be 6 nM.

Take `C=CC(=O)N1CC(S(=O)(=O)c2ccc(N3CC(CN4CCC([C@@](Cn5ccnc5CC)(c5cccc(F)c5)[C@H]5CCC[C@@H]5NC(=O)OC)CC4)C3)cc2)C1` [Cpd. No. 8, methyl ((1S,2R)-2-((S)-1-(1-((1-(4-((1-acryloylazetidin-3-yl)sulfonyl)phenyl)azetidin-3-yl)methyl)piperidin-4-yl)-2-(2-ethyl-1H-imidazol-1-yl)-1-(3-fluorophenyl)ethyl)cyclopentyl)carbamate]: the IC50 was found to be 2 nM.

Consider `COC(=O)N[C@H]1CCC[C@@H]1[C@](C#N)(c1cccc(F)c1)C1CCN(CC2CN(c3ccc(S(=O)(=O)c4cccc(NC(=O)/C=C/CN5CCOCC5)c4)cc3)C2)CC1` [Cpd. No. 58, methyl ((1S,2R)-2-((S)-cyano(3-fluorophenyl)(1-((1-(4-((3-((E)-4-morpholinobut-2-enamido)phenyl)sulfonyl)phenyl)azetidin-3-yl)methyl)piperidin-4-yl)methyl)cyclopentyl)carbamate], for which the IC50 stood at 5 nM.

As to `COC(=O)N[C@H]1CCC[C@@H]1[C@](C#N)(c1cccc(F)c1)C1CCN(CC2CN(c3ccc(S(=O)(=O)C4CN(C(=O)/C=C/CN5CCOCC5)C4)cc3)C2)CC1` [Cpd. No. 59, methyl ((1S,2R)-2-((S)-cyano(3-fluorophenyl)(1-((1-(4-((1-((E)-4-morpholinobut-2-enoyl)azetidin-3-yl)sulfonyl)phenyl)azetidin-3-yl)methyl)piperidin-4-yl)methyl)cyclopentyl)carbamate], the IC50 worked out at 4 nM.

Consider `CCc1nccn1C[C@@](c1cccc(F)c1)(C1CCN(CC2(F)CN(c3ccc(S(=O)(=O)C4CN(C(=O)/C=C/CN(C)C)C4)cc3)C2)CC1)[C@H]1CCC[C@@H]1NC(=O)OC` [Cpd. No. 66, methyl ((1S,2R)-2-((S)-1-(1-((1-(4-((1-((E)-4-(dimethylamino)but-2-enoyl)azetidin-3-yl)sulfonyl)phenyl)-3-fluoroazetidin-3-yl)methyl)piperidin-4-yl)-2-(2-ethyl-1H-imidazol-1-yl)-1-(3-fluorophenyl)ethyl)cyclopentyl)carbamate], for which the IC50 amounted to 1 nM.

Turning to `C=CC(=O)Nc1ccc(S(=O)(=O)c2ccc(N3CC(CN4CCC([C@](C#N)(c5cccc(F)c5)[C@H]5CCC[C@@H]5OC(=O)NC)CC4)C3)cc2)cc1` [Cpd. No. 11, (1S,2R)-2-((R)-(1-((1-(4-((4-acrylamidophenyl)sulfonyl)phenyl)azetidin-3-yl)methyl)piperidin-4-yl)(cyano)(3-fluorophenyl)methyl)cyclopentyl methylcarbamate], the IC50 stood at 2200 nM.

Take `C=CC(=O)N1CC(S(=O)(=O)c2ccc(N3CC(CN4CCC([C@](C#N)(c5cccc(F)c5)[C@H]5CCC[C@@H]5OC(=O)NC)CC4)C3)cc2)C1` [Cpd. No. 2, (1S,2R)-2-((R)-(1-((1-(4-((1-acryloylazetidin-3-yl)sulfonyl)phenyl)azetidin-3-yl)methyl)piperidin-4-yl)(cyano)(3-fluorophenyl)methyl)cyclopentyl methylcarbamate]: the concentration for half-maximal inhibition (IC50) is 374 nM.

As to `C=CS(=O)(=O)N[C@H]1CCC[C@@H]1[C@](C#N)(c1cccc(F)c1)C1CCN(CC2CN(c3ccc(C#N)cc3)C2)CC1` [Cpd. No. 79, N-((1S,2R)-2-((S)-cyano(1-((1-(4-cyanophenyl)azetidin-3-yl)methyl)piperidin-4-yl)(3-fluorophenyl)methyl)cyclopentyl)ethenesulfonamide], the 50% inhibitory concentration (IC50) turned out to be 1070 nM.

Regarding `C=CC(=O)Nc1cccc(S(=O)(=O)c2ccc(N3CC(CN4CCC([C@](C#N)(c5cccc(F)c5)[C@H]5CCC[C@@H]5OC(=O)NC)CC4)C3)cc2)c1` [Cpd. No. 4, (1S,2R)-2-((R)-(1-((1-(4-((3-acrylamidophenyl)sulfonyl)phenyl)azetidin-3-yl)methyl)piperidin-4-yl)(cyano)(3-fluorophenyl)methyl)cyclopentyl methylcarbamate], the IC50 came to 300 nM.

Consider `C=CC(=O)N1CC(S(=O)(=O)c2ccc(OCCOc3ccc([C@@](C#N)(c4cccc(F)c4)[C@H]4CCC[C@@H]4NC(=O)OC)cc3)cc2)C1` [Cpd. No. 64, methyl ((1S,2R)-2-((R)-(4-(2-(4-((1-acryloylazetidin-3-yl)sulfonyl)phenoxy)ethoxy)phenyl)(cyano)(3-fluorophenyl)methyl)cyclopentyl)carbamate], for which the IC50 was more than 10000 nM.

Regarding `C=CC(=O)Nc1ccc(S(=O)(=O)c2ccc(N3CC(CN4CCC([C@@](C#N)(c5cccc(F)c5)[C@H]5CCC[C@@H]5NC(=O)OC)CC4)C3)cc2)cc1` [Cpd. No. 61, methyl ((1S,2R)-2-((S)-(1-((1-(4-((4-acrylamidophenyl)sulfonyl)phenyl)azetidin-3-yl)methyl)piperidin-4-yl)(cyano)(3-fluorophenyl)methyl)cyclopentyl)carbamate], the IC50 was determined as 4 nM.

As to `COC(=O)N[C@H]1CCC[C@@H]1[C@](C#N)(c1cccc(F)c1)C1CCN(CC2CN(c3ccc(S(=O)(=O)C4CN(C(=O)/C=C/CN5CCCCC5)C4)cc3)C2)CC1` [Cpd. No. 71, methyl ((1S,2R)-2-((S)-cyano(3-fluorophenyl)(1-((1-(4-((1-((E)-4-(piperidin-1-yl)but-2-enoyl)azetidin-3-yl)sulfonyl)phenyl)azetidin-3-yl)methyl)piperidin-4-yl)methyl)cyclopentyl)carbamate], the IC50 came to 4 nM.

(Values after patent US11045448B2, “Piperidines as covalent menin inhibitors” (THE REGENTS OF THE UNIVERSITY OF MICHIGAN, priority 2017, dated 2021).)
